Experimental data taken from ChEMBL document CHEMBL1201862, “PubChem BioAssay data set” (2004).
Active and inactive are the calls of the source.

Tests used:
Cytochrome P450 2C19 = Cytochrome P450 2C19 (Homo sapiens, UniProt P33261); test: Cytochrome panel assay with activity outcomes. Panel member name: p450-cyp2c19 Compounds with AC50 equal or less than 10 uM are considered active; assay type: functional
Cytochrome P450 1A2 = target: T1, Cytochrome P450 1A2 (Homo sapiens, UniProt P05177);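 also: PubChem cytochrome P450 panel assay, CYP1A2 panel member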
T1 sequence (P05177 whole entry): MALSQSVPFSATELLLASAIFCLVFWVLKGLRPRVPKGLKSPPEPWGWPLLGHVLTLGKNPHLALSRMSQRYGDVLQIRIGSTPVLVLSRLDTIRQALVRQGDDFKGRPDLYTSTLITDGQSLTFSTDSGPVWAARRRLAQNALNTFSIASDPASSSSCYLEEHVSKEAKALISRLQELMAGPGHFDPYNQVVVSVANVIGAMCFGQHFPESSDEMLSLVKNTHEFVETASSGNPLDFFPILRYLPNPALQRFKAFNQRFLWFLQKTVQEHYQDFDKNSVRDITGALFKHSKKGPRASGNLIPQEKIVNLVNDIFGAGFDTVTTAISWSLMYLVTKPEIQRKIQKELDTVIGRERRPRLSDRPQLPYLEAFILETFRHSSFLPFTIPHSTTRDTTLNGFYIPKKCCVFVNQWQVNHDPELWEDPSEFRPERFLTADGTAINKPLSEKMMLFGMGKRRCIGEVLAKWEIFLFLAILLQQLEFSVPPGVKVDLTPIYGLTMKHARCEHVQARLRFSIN

[1] = target: T2, Replicative DNA helicase DnaB (Mycobacterium tuberculosis, UniProt P9WMR3); test: DnaB intein splicing inhibitors, dose response, biochemical, cell-free fluorescence (AID 449749); assay type: functional
T2 sequence (P9WMR3 whole entry): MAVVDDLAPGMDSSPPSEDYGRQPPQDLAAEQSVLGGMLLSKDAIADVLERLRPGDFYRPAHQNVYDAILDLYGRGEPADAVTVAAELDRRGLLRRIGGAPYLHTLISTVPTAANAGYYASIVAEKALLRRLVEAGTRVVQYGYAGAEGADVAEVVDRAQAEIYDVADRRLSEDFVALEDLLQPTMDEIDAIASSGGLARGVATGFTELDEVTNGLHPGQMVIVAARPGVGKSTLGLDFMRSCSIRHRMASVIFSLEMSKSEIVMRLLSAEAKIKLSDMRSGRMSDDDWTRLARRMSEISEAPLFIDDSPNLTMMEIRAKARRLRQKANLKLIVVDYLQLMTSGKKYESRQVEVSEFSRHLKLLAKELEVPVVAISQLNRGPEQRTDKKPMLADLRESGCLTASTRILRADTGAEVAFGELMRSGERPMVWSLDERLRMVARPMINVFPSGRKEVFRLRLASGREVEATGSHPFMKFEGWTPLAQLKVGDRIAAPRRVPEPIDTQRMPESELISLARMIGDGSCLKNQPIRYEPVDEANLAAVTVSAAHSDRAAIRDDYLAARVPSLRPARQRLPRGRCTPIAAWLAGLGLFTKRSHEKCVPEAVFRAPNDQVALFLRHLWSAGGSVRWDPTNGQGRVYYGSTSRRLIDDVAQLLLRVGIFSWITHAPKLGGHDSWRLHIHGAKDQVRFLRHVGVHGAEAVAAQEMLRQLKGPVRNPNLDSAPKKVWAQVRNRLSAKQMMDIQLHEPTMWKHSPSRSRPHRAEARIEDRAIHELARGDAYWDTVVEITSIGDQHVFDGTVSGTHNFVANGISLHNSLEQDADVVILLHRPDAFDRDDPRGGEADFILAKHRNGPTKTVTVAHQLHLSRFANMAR

Protein RecA = target: T3, Protein RecA (Mycobacterium tuberculosis, UniProt P9WHJ3); test: Fluorescence Cell-Free Homogeneous Dose Retest to Identify Inhibitors of RecA-Intein Splicing Activity. [Related pubchem assays (depositor defined):AID2097, AID2223, AID489010, AID492950]; assay type: functional
T3 sequence (P9WHJ3 whole entry): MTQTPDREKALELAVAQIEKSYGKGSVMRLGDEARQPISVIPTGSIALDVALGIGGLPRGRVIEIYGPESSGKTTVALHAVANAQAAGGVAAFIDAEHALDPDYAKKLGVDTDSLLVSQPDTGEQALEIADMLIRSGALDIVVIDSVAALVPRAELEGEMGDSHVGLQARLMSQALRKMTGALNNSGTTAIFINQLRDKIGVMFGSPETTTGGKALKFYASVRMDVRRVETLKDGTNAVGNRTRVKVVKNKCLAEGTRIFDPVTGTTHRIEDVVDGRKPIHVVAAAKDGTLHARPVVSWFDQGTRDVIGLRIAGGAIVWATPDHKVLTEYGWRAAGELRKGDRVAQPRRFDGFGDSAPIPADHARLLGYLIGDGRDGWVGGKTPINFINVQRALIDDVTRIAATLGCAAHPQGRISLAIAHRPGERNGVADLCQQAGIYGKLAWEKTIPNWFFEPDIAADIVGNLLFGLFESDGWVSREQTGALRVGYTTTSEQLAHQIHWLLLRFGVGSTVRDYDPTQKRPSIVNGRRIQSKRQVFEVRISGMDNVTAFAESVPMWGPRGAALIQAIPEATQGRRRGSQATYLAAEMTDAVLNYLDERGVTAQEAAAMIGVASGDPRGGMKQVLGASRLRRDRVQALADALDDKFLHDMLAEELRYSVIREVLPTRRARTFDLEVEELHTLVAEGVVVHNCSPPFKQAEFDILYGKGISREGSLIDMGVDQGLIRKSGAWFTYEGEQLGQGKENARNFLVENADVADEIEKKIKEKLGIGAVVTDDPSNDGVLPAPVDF

[2] = target: T4, Heat shock factor protein 1 (Mus musculus, UniProt P38532); test: decrease of HSF1-responsive luciferase luminescence – cell-based, NIH3T3, dose retest, confirmation (AID 2382); assay type: functional;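 also: NIH3T3 fibroblasts with HSF1-driven luciferase reporter stressed by proteasome inhibitor MG132; luminescence from HSF1-driven luciferase expression after 8 hours of MG132 stress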
T4 sequence (P38532 whole entry): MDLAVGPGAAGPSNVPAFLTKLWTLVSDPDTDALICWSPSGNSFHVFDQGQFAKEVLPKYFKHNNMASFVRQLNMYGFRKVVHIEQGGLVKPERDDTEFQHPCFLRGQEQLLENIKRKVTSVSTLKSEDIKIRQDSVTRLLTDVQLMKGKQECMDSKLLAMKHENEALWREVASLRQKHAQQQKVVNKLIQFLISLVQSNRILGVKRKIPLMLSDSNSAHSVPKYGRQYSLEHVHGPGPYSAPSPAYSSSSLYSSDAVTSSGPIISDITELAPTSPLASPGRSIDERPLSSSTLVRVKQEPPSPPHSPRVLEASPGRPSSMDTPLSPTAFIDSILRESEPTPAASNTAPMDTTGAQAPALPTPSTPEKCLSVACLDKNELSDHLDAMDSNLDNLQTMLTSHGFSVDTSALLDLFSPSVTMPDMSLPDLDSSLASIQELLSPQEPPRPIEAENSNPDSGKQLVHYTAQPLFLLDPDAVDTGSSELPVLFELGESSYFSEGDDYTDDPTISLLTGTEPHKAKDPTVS

Cytochrome P450 3A4 = Cytochrome P450 3A4 (Homo sapiens, UniProt P08684);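 also: CYP3A4 tested as one member of a cytochrome P450 panel screen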
Sequence of Cytochrome P450 3A4 (P08684 whole entry): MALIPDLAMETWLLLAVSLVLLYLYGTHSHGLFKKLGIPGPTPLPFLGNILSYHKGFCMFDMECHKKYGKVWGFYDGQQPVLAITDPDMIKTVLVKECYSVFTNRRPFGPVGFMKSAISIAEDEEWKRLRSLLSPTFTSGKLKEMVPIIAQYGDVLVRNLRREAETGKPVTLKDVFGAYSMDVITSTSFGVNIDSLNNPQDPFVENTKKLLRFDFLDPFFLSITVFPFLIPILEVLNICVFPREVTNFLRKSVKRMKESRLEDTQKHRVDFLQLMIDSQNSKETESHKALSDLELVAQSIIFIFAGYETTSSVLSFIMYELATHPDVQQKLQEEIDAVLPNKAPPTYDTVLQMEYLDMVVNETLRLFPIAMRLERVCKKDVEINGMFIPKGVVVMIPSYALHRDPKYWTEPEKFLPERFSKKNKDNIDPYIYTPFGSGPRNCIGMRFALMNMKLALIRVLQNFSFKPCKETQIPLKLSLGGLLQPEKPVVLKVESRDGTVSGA

Sequence of Cytochrome P450 2C19 (P33261 whole entry): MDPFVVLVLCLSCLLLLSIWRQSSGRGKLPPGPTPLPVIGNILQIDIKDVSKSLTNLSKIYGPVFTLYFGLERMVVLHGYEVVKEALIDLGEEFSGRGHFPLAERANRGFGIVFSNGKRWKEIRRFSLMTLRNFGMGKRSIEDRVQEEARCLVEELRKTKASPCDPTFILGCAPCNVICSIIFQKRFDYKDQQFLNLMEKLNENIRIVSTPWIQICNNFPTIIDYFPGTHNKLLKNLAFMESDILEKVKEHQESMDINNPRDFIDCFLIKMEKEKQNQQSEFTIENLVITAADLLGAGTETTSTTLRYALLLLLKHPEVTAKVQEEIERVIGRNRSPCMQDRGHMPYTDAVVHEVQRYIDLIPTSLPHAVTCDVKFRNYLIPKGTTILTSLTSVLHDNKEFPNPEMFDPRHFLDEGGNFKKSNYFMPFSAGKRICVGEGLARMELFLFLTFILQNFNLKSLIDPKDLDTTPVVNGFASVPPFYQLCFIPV

COC1(OC)N=C(NC(=O)Nc2ccccc2)C2(C#N)C(c3ccccc3)C12C#N (centres undefined)
AC50 (Cytochrome P450 2C19; read-out: AC50): 5.01 µM (inconclusive) | AC50 (Cytochrome P450 1A2): 39.8 µM (inconclusive)

O=C(c1cccs1)[C@@H]1[C@@H]2C(=O)N(Cc3ccc4c(c3)OCO4)C(=O)[C@@H]2C2c3ccccc3C=CN21 (some centres undefined)
AC50 [1]: 4.09 µM (active) | EC50 (Protein RecA): 3.22 µM (active)

CCOc1cc(/C=N/NC(=O)CN2CCCCC2)ccc1OCc1ccccc1
AC50 (Cytochrome P450 2C19; read-out: AC50): 25.1 µM (inconclusive)

Cc1ccc2c(c1)c1c(n2CC(O)CN2CCOCC2)CCCC1 (centres undefined)
EC50 [2]: > 195 µM (not active)

CCOC(=O)N1CCN(C(=O)c2ccc(CS(=O)(=O)c3c(Cl)cccc3Cl)o2)CC1
EC50 [2]: > 195 µM (not active)

N#CCCn1c(=O)c(CCc2ccccc2)nc2cnc(OCc3ccccc3)nc21
AC50 (Cytochrome P450 3A4): 0.2 µM (inconclusive) | AC50 (Cytochrome P450 2C19; read-out: AC50): 39.8 µM (inconclusive) | AC50 (Cytochrome P450 1A2): 12.6 µM (inconclusive)

O=C(Oc1ccc(OC(=O)c2ccco2)c(S(=O)(=O)c2ccc(Br)cc2)c1)c1ccco1
AC50 (Cytochrome P450 3A4): 5.62 µM (inconclusive) | AC50 (Cytochrome P450 2C19; read-out: AC50): 1.41 µM (inconclusive) | AC50 (Cytochrome P450 1A2): 2.24 µM (inconclusive)

N#C/C(=N\O)c1nc(-c2ccccc2)cs1
AC50 (Cytochrome P450 3A4): 15.8 µM (inconclusive) | AC50 (Cytochrome P450 2C19; read-out: AC50): 39.8 µM (inconclusive)

O=C(c1cc(F)c(F)cc1Cl)N1CCN(c2ccc([N+](=O)[O-])c3ncccc23)CC1
AC50 [1]: 3.47 µM (active) | EC50 (Protein RecA): 11.8 µM (active)

Cc1n[nH]c(O)c1C(c1cc2c(cc1Br)OCO2)c1c(C)n[nH]c1O
AC50 [1]: 0.723 µM (active) | EC50 (Protein RecA): 0.352 µM (active)

Cc1ccc(Cn2c(C3CCCN3c3nc(C)cs3)nc3cc(C(F)(F)F)ccc32)cc1 (centres undefined)
EC50 [2]: > 195 µM (not active)

Fc1ccc(Oc2nc(-c3ccccc3)nnc2C(F)(F)F)cc1
AC50 [1]: 2.95 µM (active) | EC50 (Protein RecA): 2.28 µM (active)

CC(=O)c1c(N2CCC(C(N)=O)CC2)nc(=S)n(-c2ccccc2)c1C
AC50 (Cytochrome P450 2C19; read-out: AC50): 31.6 µM (inconclusive)

CCOc1cc(/C=C2\C(=O)N(CCC#N)N=C2C)ccc1OCC(N)=O
AC50 [1]: 6.01 µM (active) | EC50 (Protein RecA): 3.61 µM (active)

COc1ccc(CNC(=O)CCCCCNC(=O)N2CCn3c2nc2ccccc23)cc1
EC50 [2]: > 195 µM (not active)

Cc1ccc(SC(C)C(=O)NCc2cccnc2)cc1 (centres undefined)
AC50 (Cytochrome P450 3A4): 1 µM (inconclusive) | AC50 (Cytochrome P450 2C19; read-out: AC50): 7.08 µM (inconclusive)

Cc1ccc(S(=O)(=O)N2CCN(S(C)(=O)=O)C2)cc1
EC50 [2]: > 195 µM (not active)

O=C(c1ccco1)N1CCN=C1SCc1ccccc1F
EC50 [2]: > 195 µM (not active)

O=C1C(Cl)=C(N2CCCCCC2)C(=O)N1c1ccccc1
AC50 [1]: > 380 µM (inactive) | EC50 (Protein RecA): 10.3 µM (active)

CCOC(=O)CSc1nc(C)cc(Oc2ccc(=O)n(C)n2)n1
EC50 [2]: 28.1 µM (active)

CCSc1c([N+](=O)[O-])c(=O)n(-c2ccccc2)c2ccccc12
AC50 [1]: 3.94 µM (active) | EC50 (Protein RecA): 155 µM (active)

O=C(CSC(=S)N1CCOCC1)Nc1nc(-c2ccccc2)c(-c2ccccc2)o1
EC50 [2]: > 195 µM (not active)

COC(=O)c1cc(NC(=O)Nc2ccccc2OC)cc(C(=O)OC)c1
EC50 (Protein RecA): > 380 µM (inactive)

CCCC[C@@H](CNC)NC[C@H](Cc1ccc(O)cc1)NCCc1ccc(OCC)cc1
EC50 [2]: > 195 µM (not active)

O=C(O)c1cccc(Cn2c(Cl)c(/C=N/Nc3ccccc3)sc2=O)c1
AC50 [1]: > 380 µM (inactive) | EC50 (Protein RecA): > 380 µM (inactive)

COc1ccc(-c2cc(C(=O)NCc3cccnc3)no2)cc1OC
AC50 (Cytochrome P450 2C19; read-out: AC50): 28.2 µM (inconclusive)

N#C[C@H]1[C@H](c2ccccc2)[C@](C#N)(C(=O)c2ccccc2)[C@@H]2C=Cc3ccccc3N21
AC50 [1]: > 380 µM (inactive) | EC50 (Protein RecA): 8.36 µM (active)

COc1ccc(-c2noc(CCC(=O)Nc3ccc(C)c(C)c3)n2)cc1
EC50 [2]: > 195 µM (not active)

O=C(CN1C(=O)c2ccccc2S1(=O)=O)NCc1cccs1
EC50 [2]: > 195 µM (not active)

O=C(O)CCCNC(=O)CCCNC(=O)C(c1ccccc1)c1ccccc1
EC50 [2]: > 195 µM (not active)

Cn1cc(-c2nc3cnc(N4CCOCC4)nc3n(C3CC3)c2=O)c2ccccc21
AC50 (Cytochrome P450 3A4): 7.94 µM (inconclusive) | AC50 (Cytochrome P450 2C19): inconclusive | AC50 (Cytochrome P450 1A2): 3.16 µM (inconclusive)

COc1cc(/C=N/NC(=O)c2ccc(F)cc2)ccc1OC(=O)c1ccco1
AC50 [1]: 24 µM (active) | EC50 (Protein RecA): 20 µM (active)

O=C(O)c1cccc2cc(-c3ccccc3)oc(=O)c12
EC50 [2]: > 195 µM (not active)

COc1ccc(-c2nc(CSCC(=O)NCC3CCCO3)c(C)o2)cc1OC (centres undefined)
AC50 (Cytochrome P450 3A4): 39.8 µM (inconclusive) | AC50 (Cytochrome P450 2C19; read-out: AC50): 31.6 µM (inconclusive)

CN1CCN(Cc2cc(=O)oc3ccc(Cl)cc23)CC1
AC50 [1]: > 380 µM (inactive) | EC50 (Protein RecA): > 380 µM (inactive)

O=C(NC(=S)NC1C2CC3CC(C2)CC1C3)c1ccccc1 (centres undefined)
EC50 [2]: > 195 µM (not active)

N[C@]1(C(=O)O)CCc2cc(P(=O)(O)O)ccc21
AC50 (Cytochrome P450 2C19; read-out: AC50): 15.8 µM (inconclusive) | AC50 (Cytochrome P450 1A2): 39.8 µM (inconclusive)
